This passage reports pest or weed control results from US8394774B2, “Pesticidal compositions” (Dow AgroSciences, LLC., priority 2009, dated 2013).

Test [1] concerns beet armyworm (BAW; Spodoptera exigua: Lepidoptera). Put plainly: 96-well microtiter plate-based high throughput (HTS) bioassay on beet armyworm (BAW HTS). The class given is in vivo. Particulars: 144 h, read-out: BAW HTS. The protocol: (§1) Bioassays on beet armyworm (BAW; Spodoptera exigua: Lepidoptera) were conducted using either a 96-well microtiter plate-based high throughput (HTS) bioassay or a 128-well diet tray assay. The HTS assay is based on a modification of Lewer et al. J. Nat. Prod. 2006, 69, 1506. BAW eggs were placed on top of artificial diet (100 μL) in each well of a 96-well microtiter plate. The diet was pretreated with test compounds (12 μg dissolved in 30 μL of DMSO-acetone-H2O mixture) layered on top of the diet using a liquid handling system and then allowed to dry for several hours. Infested plates were then covered with a layer of sterile cotton batting and the plate lid, and then held in the dark at 29° C. Mortality was recorded at 6 days post-treatment. Each plate had six replicates. The percent mortality was calculated from the average of the six replicates. In the case of the 128-well diet assay, three to five second instar BAW larvae were placed in each well (3 mL) of the diet tray that had been previously filled with 1 mL of artificial diet to which 50 ug/cm^2 of the test compound (dissolved in 50 μL of 90:10 acetone-water mixture) had been applied (to each of eight wells) and then allowed to dry. Trays were covered with a clear self-adhesive cover, and held at 25° C., 14:10 light-dark for six days. Percent mortality was recorded for the larvae in each well; activity in the eight wells was then averaged. In Table 4, under both the BAW HTS and BAW 50 headings, an “A” means that the compound was tested and at least 50 percent mortality was observed whereas, “B” means that either (1) the compound was tested and less than 50 percent mortality was observed or (2) the compound was not tested.

For test [2] the test system is unchanged. The test is described as follows: 128-well diet tray assay on beet armyworm (BAW 50). To be noted: 144 h, read-out: BAW 50. The class given is in vivo. As for the experimental part:
as §1

Setting [3] is: percent mortality, 96-well HTS, 12 μg test compound on diet, BAW eggs, 6 days post-treatment, 29° C., average of six replicates.
The mark [4] stands for this setting: percent mortality, 128-well diet assay, 50 ug/cm^2 of test compound on diet, second instar BAW larvae, six days, 25° C., average of eight wells.

Where two headings read alike, the source gives them in different places.

For `CCCO[C@@H]1[C@@H](OC)[C@H](C)O[C@@H](OC(=O)Nc2ccc(/C=C/c3ccc(OC(F)(F)C(F)(F)F)cc3)cc2)[C@@H]1OC` [Compound 18, {4-[(E)-2-(4-Pentafluoroethyloxyphenyl)-vinyl]-phenyl}-carbamic acid (2S,3R,4R,5S,6S)-4-propoxy-3,5-dimethoxy-6-methyl-tetrahydropyran-2-yl ester], the pest or weed control at 12 µg/well, 12 µg/well in test [1] is less than 50%. Besides, the pest or weed control at 50 µg/cm2, 50 µg/cm2 in test [2] was more than 50%.

As to `CCO[C@@H]1[C@@H](OC)[C@H](C)O[C@@H](OC(=O)Nc2ccc(/C=C/c3ccc(C(F)(F)F)cc3)cc2)[C@@H]1OC` [Compound 16, {4-[(E)-2-(4-trifluoromethylphenyl)-vinyl]-phenyl}-carbamic acid (2S,3R,4R,5S,6S)-4-ethoxy-3,5-dimethoxy-6-methyl-tetrahydropyran-2-yl ester], in test [1], the pest or weed control at 12 µg/well, 12 µg/well was more than 50%. Besides, the pest or weed control at 50 µg/cm2, 50 µg/cm2 in test [2] was more than 50%.

Regarding `CCO[C@@H]1[C@@H](OC)[C@H](C)O[C@@H](O/N=C/c2ccc(/C=C/c3ccc(C(F)(F)C(F)(F)OC(F)(F)C(F)(F)C(F)(F)F)cc3)cc2)[C@@H]1OC` [Compound 3], the pest or weed control at 12 µg/well, 12 µg/well in test [1] (setting [3]) was less than 50%. Further, the pest or weed control at 50 µg/cm2, 50 µg/cm2 in test [2] (setting [4]) is less than 50%.

As for `CCO[C@@H]1[C@@H](OC)[C@H](C)O[C@@H](O/N=C/c2ccc(/C=C/c3ccc(OC(F)(F)F)cc3)cc2)[C@@H]1OC` [Compound 5, 4-[(E)-2-(4-Trifluoromethoxyphenyl)-vinyl]-benzaldehyde O-((2S,3R,4R,5S,6S)-4-ethoxy-3,5-dimethoxy-6-methyl-tetrahydropyran-2-yl)-oxime], in test [1] (setting [3]), the pest or weed control at 12 µg/well, 12 µg/well is less than 50%. Further, the pest or weed control at 50 µg/cm2, 50 µg/cm2 in test [2] (setting [4]) is more than 50%.

Regarding `CCCO[C@@H]1[C@@H](OC)[C@H](C)O[C@@H](O/N=C/c2ccc(/C=C/c3ccc(C(F)(F)F)cc3)cc2)[C@@H]1OC` [Compound 10, 4-[(E)-2-(4-Trifluoromethylphenyl)-vinyl]-benzaldehyde O-((2S,3R,4R,5S,6S)-4-propoxy-3,5-dimethoxy-6-methyl-tetrahydropyran-2-yl)-oxime], in test [1] (setting [3]), the pest or weed control at 12 µg/well, 12 µg/well is more than 50%. Further, the pest or weed control at 50 µg/cm2, 50 µg/cm2 in test [2] (setting [4]) is more than 50%.

Consider `CO[C@@H]1[C@@H](OC)[C@H](C)O[C@@H](O/N=C/c2ccc(/C=C/c3cccc(C(F)(F)F)c3)cc2)[C@@H]1OC` [Compound 9, 4-[(E)-2-(3-Trifluoromethylphenyl)-vinyl]-benzaldehyde O-((2S,3R,4R,5S,6S)-3,4,5-trimethoxy-6-methyl-tetrahydropyran-2-yl)-oxime], for which, in test [1] (setting [3]), the pest or weed control at 12 µg/well, 12 µg/well was less than 50%. The pest or weed control at 50 µg/cm2, 50 µg/cm2 in test [2] (setting [4]) was more than 50%.

For `CO[C@@H]1[C@@H](OC)[C@H](C)O[C@@H](O/N=C/c2ccc(/C=C/c3ccc(OC(F)(F)F)cc3)cc2)[C@@H]1OC` [Compound 8], in test [1] (setting [3]), the pest or weed control at 12 µg/well, 12 µg/well is more than 50%. For the same compound, the pest or weed control at 50 µg/cm2, 50 µg/cm2 in test [2] (setting [4]) was more than 50%.

Regarding `CCO[C@@H]1[C@@H](OC)[C@H](C)O[C@@H](OC(=O)Nc2ccc(/N=N/c3ccc(C(F)(F)F)cc3)cc2)[C@@H]1OC` [Compound 21, [4-(4-Trifluoromethylphenylazo)-phenyl]-carbamic acid (2S,3R,4R,5S,6S)-4-ethoxy-3,5-dimethoxy-6-methyl-tetrahydropyran-2-yl ester], the pest or weed control at 12 µg/well, 12 µg/well in test [1] is more than 50%. Also, the pest or weed control at 50 µg/cm2, 50 µg/cm2 in test [2] is less than 50%.

Consider `CCO[C@@H]1[C@@H](OC)[C@H](C)O[C@@H](O/N=C/c2ccc(/C=C/c3ccc(C(O)(C(F)(F)F)C(F)(F)F)cc3)cc2)[C@@H]1OC` [Compound 11, 4-{(E)-2-[4-(2,2,2-Trifluoro-1-hydroxy-1-trifluoromethyl-ethyl)-phenyl]-vinyl}-benzaldehyde O-((2S,3R,4R,5S,6S)-4-ethoxy-3,5-dimethoxy-6-methyl-tetrahydropyran-2-yl)-oxime], for which the pest or weed control at 12 µg/well, 12 µg/well in test [1] (setting [3]) was more than 50%. The pest or weed control at 50 µg/cm2, 50 µg/cm2 in test [2] (setting [4]) is less than 50%.
